Reference: article PMC7327804 (Data in Brief, 2020)

Columns and labels:
[1] = tested on: NTS2 (p42/p44 MAPK phosphorylation); test: Western blot of p42/p44 (ERK1/2) phosphorylation in 1321N1 cells stably expressing NTS2; assay type: cell-based, human; details: 1321N1 cells stably expressing NTS2, serum-starved, 1 µM ligand, various time points
Method: (§1) Cells stably expressing NTS1 or NTS2 were grown for 48 h in complete culture media before being incubated for 16 h in serum-free media. Cells were then stimulated with either NT or JMV2009. Aspiration of media and addition of ice-cold PBS blocked any further protein phosphorylation. Cells were then lysed in RIPA containing proteases and phosphatases inhibitors before being centrifuged at 8000 g for 15 min.
(§2) Separation, transfer and blotting steps were performed as described previously using anti-phosphorylated ERK1/2 (Cell Signaling, cat# 4376S, lot 18, Danvers, MA; 1:1000, in TBS-T, 1% BSA) or anti-ERK1/2 (Cell Signaling, cat# 4695S, lot 28; 1:1000, in TBS-T, 1% BSA) as primary antibodies and HRP-conjugated anti-rabbit IgG from goat (Cell Signaling, cat# 7074S, lot 28; 1:5000, in TBS-T, 1% BSA) as secondary antibody for detection.

[2] = tested on: NTS1 (p42/p44 MAPK phosphorylation); test: Western blot of p42/p44 (ERK1/2) phosphorylation in CHO-K1 cells stably expressing NTS1; assay type: cell-based, human; details: CHO-K1 cells stably expressing NTS1, serum-starved, 1 µM ligand, various time points
Method: as §1, §2

HA-hNTS2 receptor = biological target: T1, HA-hNTS2 receptor (Homo sapiens, UniProt O95665); test: Cell-surface ELISA for internalization of HA-hNTS2 receptor; assay type: cell-based; details: CHO-K1 cells transfected with HA-hNTS2, 1 µM ligand, 60 min at 37 °C in serum-free media, mean ± SEM of at least three independent determinations
T1 construct: expressed in transfected cells; host or cells: CHO-K1, transient transfection
T1 sequence (O95665 whole entry): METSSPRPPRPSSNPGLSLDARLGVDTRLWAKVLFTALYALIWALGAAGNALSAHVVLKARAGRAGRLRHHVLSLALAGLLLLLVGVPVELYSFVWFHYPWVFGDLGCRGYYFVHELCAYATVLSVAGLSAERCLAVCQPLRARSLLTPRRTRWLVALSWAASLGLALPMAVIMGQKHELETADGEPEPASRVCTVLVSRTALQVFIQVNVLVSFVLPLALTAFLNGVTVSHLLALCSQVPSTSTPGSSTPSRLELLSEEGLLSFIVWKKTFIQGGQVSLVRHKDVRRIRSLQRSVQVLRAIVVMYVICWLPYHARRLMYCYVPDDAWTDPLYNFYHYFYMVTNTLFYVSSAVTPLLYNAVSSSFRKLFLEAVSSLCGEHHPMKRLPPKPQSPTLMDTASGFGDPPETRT
Method: Receptor internalization using CHO-K1 cells transiently transfected with either HA-NTS1 or HA-NTS2 was carried out as previously described in details [9], [10], [11]. […] Cells were then washed with PBS and remaining ELISA steps form the detailed protocol were followed and unchanged. Absorbance was read at 450 nm and data were normalized according to the protocol.

## CC[C@H](C)[C@H](NC(=O)[C@H](Cc1ccc(O)cc1)NC(=O)[C@@H]1C[Si](C)(C)CN1C(=O)[C@H](CCCCN)NC(=O)[C@@H](N)CCCCN)C(=O)N[C@@H](CC(C)C)C(=O)O [JMV2009]
[1]
  phosphorylation of p42/p44 proteins (ERK 1/2), NTS2 cells: time-dependent phosphorylation
[2]
  phosphorylation of p42/p44 proteins (ERK 1/2), NTS1 cells: time-dependent phosphorylation
HA-hNTS2 receptor
  NTS2 internalization: 15.1 ± 9.8%
